Results as given in PubChem BioAssay (NCI).
Several values for one entry are separate records, joined by “and”; a condition that tells them apart may be missing. Equal entries are not always repeated.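 Assay format: 96-well plates, 48-hour exposure. GI50 marks 50% less growth. Definition used: TGI = concentration required for complete inhibition of growth.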

Columns and labels:
Assay in all cases: growth of human tumour cells (NCI), 48 h
SK-OV-3 ovarian = test system: SK-OV-3 ovarian
HCC-2998 colon = test system: HCC-2998 colon
ACHN renal = test system: ACHN renal
PC-3 prostate = test system: PC-3 prostate
HL-60(TB) leukemia = test system: HL-60(TB) leukemia
OVCAR-3 ovarian = test system: OVCAR-3 ovarian
SW-620 colon = test system: SW-620 colon
NCI-H226 lung = test system: NCI-H226 lung
IGROV1 ovarian = test system: IGROV1 ovarian
SNB-19 CNS = test system: SNB-19 CNS

## COc1c(C)c(OC)c(C(=O)CC(C)C)c(OC)c1C
SK-OV-3 ovarian
  TGI: > 100 µM
HCC-2998 colon
  TGI: > 100 µM
ACHN renal
  TGI: > 100 µM
PC-3 prostate
  TGI: > 100 µM
HL-60(TB) leukemia
  TGI: 50.5 µM
OVCAR-3 ovarian
  TGI: > 100 µM
SW-620 colon
  TGI: > 100 µM
NCI-H226 lung
  TGI: > 100 µM
IGROV1 ovarian
  TGI: > 100 µM
SNB-19 CNS
  TGI: > 100 µM

## CCCS(=O)(=O)Nc1cccc(Nc2ncnc3cc(NC(=O)CCl)ccc23)c1Cl
SK-OV-3 ovarian
  GI50: 4 µM
  TGI: 8.16 µM
HCC-2998 colon
  GI50: 5.09 µM
  TGI: 10.6 µM
ACHN renal
  GI50: 3.44 µM
  TGI: 7.23 µM
PC-3 prostate
  GI50: 3.44 µM
  TGI: 8.44 µM
HL-60(TB) leukemia
  GI50: 4.28 µM
  TGI: 10.9 µM
OVCAR-3 ovarian
  GI50: 2.98 µM
  TGI: 6.62 µM
SW-620 colon
  GI50: 1.23 µM
  TGI: 4.16 µM
NCI-H226 lung
  GI50: 3.31 µM
  TGI: 11.9 µM
IGROV1 ovarian
  GI50: 2.61 µM
  TGI: 7.06 µM
SNB-19 CNS
  GI50: 1.35 µM
  TGI: 4.58 µM

## CC1OC(CC(=O)O)Cc2c1c(O)c1c(O)cc(-c3cc(=O)c4c(=O)c5c(c(=O)c=4c3=O)CC(CC(=O)O)OC5C)c(O)c1c2O (configuration not stated)
SK-OV-3 ovarian
  GI50: 48.8 µM
  TGI: > 100 µM
HCC-2998 colon
  GI50: 18.9 µM
  TGI: > 73.9 µM and 55.2 µM
ACHN renal
  GI50: 43.3 µM
  TGI: > 81 µM
PC-3 prostate
  TGI: 64.3 µM
HL-60(TB) leukemia
  TGI: > 49.1 µM
OVCAR-3 ovarian
  GI50: 37 µM
  TGI: > 58.6 µM
SW-620 colon
  GI50: 22 µM
  TGI: 22.5 µM
NCI-H226 lung
  GI50: 46.8 µM
  TGI: > 75.4 µM
IGROV1 ovarian
  TGI: > 86.3 µM
SNB-19 CNS
  GI50: 66.6 µM
  TGI: > 100 µM

## CCOC(=O)Nc1ccc2c(c1)C(=O)N(CC)c1ccccc1O2
SK-OV-3 ovarian
  GI50: 0.157 µM
  TGI: > 100 µM
HCC-2998 colon
  GI50: 0.309 µM
  TGI: > 100 µM
ACHN renal
  GI50: 0.232 µM
  TGI: > 100 µM
PC-3 prostate
  GI50: 0.121 µM
  TGI: > 100 µM
HL-60(TB) leukemia
  GI50: 0.0545 µM
  TGI: 0.155 µM
OVCAR-3 ovarian
  GI50: 0.0788 µM
  TGI: 0.612 µM
SW-620 colon
  GI50: 0.0632 µM
  TGI: > 100 µM
NCI-H226 lung
  GI50: 0.796 µM
  TGI: > 100 µM
IGROV1 ovarian
  GI50: 0.265 µM
  TGI: > 100 µM
SNB-19 CNS
  GI50: 0.268 µM
  TGI: > 100 µM

## O=c1cc(-c2ccccc2)oc2c1ccc1ccccc12
SK-OV-3 ovarian
  GI50: 19.3 µM
  TGI: 54.1 µM
HCC-2998 colon
  GI50: 56.7 µM
  TGI: > 100 µM
ACHN renal
  GI50: 17.6 µM
  TGI: 90 µM
PC-3 prostate
  GI50: 23.1 µM
  TGI: > 100 µM
HL-60(TB) leukemia
  GI50: 23.9 µM
  TGI: 56.8 µM
OVCAR-3 ovarian
  GI50: 30.9 µM
  TGI: > 100 µM
SW-620 colon
  GI50: 49.2 µM
  TGI: > 100 µM
NCI-H226 lung
  GI50: 18.9 µM
  TGI: 59.5 µM
IGROV1 ovarian
  GI50: 14.1 µM
  TGI: 55.8 µM
SNB-19 CNS
  GI50: 6.1 µM
  TGI: > 100 µM

## CCCCC(OC(=O)c1ccc(N)cc1)C(=O)Nc1nc(CC(=O)OCC)cs1 (configuration not stated)
SK-OV-3 ovarian
  GI50: 29.1 µM
  TGI: > 100 µM
HCC-2998 colon
  GI50: 67.5 µM
  TGI: > 100 µM
ACHN renal
  GI50: 38.8 µM
  TGI: > 100 µM
PC-3 prostate
  GI50: 42.4 µM
  TGI: > 100 µM
HL-60(TB) leukemia
  GI50: 35.1 µM
  TGI: 95.1 µM
OVCAR-3 ovarian
  GI50: 23.5 µM
  TGI: 82 µM
SW-620 colon
  GI50: 48 µM
  TGI: > 100 µM
NCI-H226 lung
  GI50: 43.5 µM
  TGI: > 100 µM
IGROV1 ovarian
  GI50: 51 µM
  TGI: > 100 µM
SNB-19 CNS
  GI50: 49.9 µM
  TGI: > 100 µM

## CCOC(=O)c1c2c(n3ccc(NC(=O)CCN4CCCCC4)cc13)C(=O)c1ncccc1C2=O
SK-OV-3 ovarian
  GI50: 0.0953 µM
  TGI: 18.7 µM
HCC-2998 colon
  GI50: 1.53 µM
  TGI: 3.24 µM
ACHN renal
  GI50: < 0.01 µM
  TGI: 1.51 µM
PC-3 prostate
  GI50: 1.2 µM
  TGI: 2.63 µM
HL-60(TB) leukemia
  GI50: 1.46 µM
  TGI: 3.46 µM
OVCAR-3 ovarian
  GI50: 1.14 µM
  TGI: 2.64 µM
SW-620 colon
  GI50: 0.0269 µM
  TGI: 2.38 µM
NCI-H226 lung
  GI50: 4.32 µM
  TGI: 11.3 µM
IGROV1 ovarian
  GI50: 0.348 µM
  TGI: 2.54 µM
SNB-19 CNS
  GI50: 1.06 µM
  TGI: 3.21 µM

## FC(F)(F)c1nc(SCc2ccc(Cl)cc2)n[nH]1
SK-OV-3 ovarian
  TGI: > 100 µM
HCC-2998 colon
  TGI: > 100 µM
ACHN renal
  TGI: > 100 µM
PC-3 prostate
  TGI: > 100 µM
HL-60(TB) leukemia
  TGI: > 100 µM
OVCAR-3 ovarian
  TGI: > 100 µM
SW-620 colon
  TGI: > 100 µM
NCI-H226 lung
  TGI: > 100 µM
IGROV1 ovarian
  TGI: > 100 µM
SNB-19 CNS
  TGI: > 100 µM

## CC[C@]12C=CCN3CC[C@@]4(c5ccc(OC)cc5N(C)[C@H]4[C@@](O)(C(=O)OC)[C@@H]1OC(=O)CCC(=O)O[C@H]1CC[C@H]4[C@@H]5CC[C@H]6CC(=O)CC[C@]6(C)[C@H]5CC[C@]14C)[C@@H]32
SK-OV-3 ovarian
  GI50: 2.89 µM
  TGI: 9.55 µM
HCC-2998 colon
  GI50: 3.34 µM
  TGI: > 100 µM
ACHN renal
  GI50: 3.01 µM
  TGI: > 100 µM
PC-3 prostate
  GI50: 0.703 µM
  TGI: > 100 µM
HL-60(TB) leukemia
  GI50: 2.12 µM
  TGI: 5.36 µM
OVCAR-3 ovarian
  GI50: 3.05 µM
  TGI: > 100 µM
SW-620 colon
  GI50: 3.05 µM
  TGI: 13.2 µM
NCI-H226 lung
  GI50: 3.84 µM
  TGI: > 100 µM
IGROV1 ovarian
  GI50: 3.17 µM
  TGI: > 100 µM
SNB-19 CNS
  GI50: 4.85 µM
  TGI: > 100 µM

## COC(=O)C1=C(C(=O)ON)[C@@H]2C=C[C@@]1([C@@H](Cc1ccccc1)Nc1ccccc1)O2
SK-OV-3 ovarian
  GI50: 15.6 µM
  TGI: 29.2 µM
HCC-2998 colon
  GI50: 17.2 µM
  TGI: 32.5 µM
ACHN renal
  GI50: 1.67 µM
  TGI: 3.04 µM
PC-3 prostate
  GI50: 1.84 µM
  TGI: 3.74 µM
HL-60(TB) leukemia
  GI50: 1.45 µM
  TGI: 6.18 µM
OVCAR-3 ovarian
  GI50: 1.57 µM
  TGI: 3 µM
SW-620 colon
  GI50: 1.8 µM
  TGI: 3.51 µM
NCI-H226 lung
  GI50: 14.5 µM
  TGI: 28.8 µM
IGROV1 ovarian
  GI50: 2.03 µM
  TGI: 4.01 µM
SNB-19 CNS
  GI50: 16 µM
  TGI: 29.5 µM

## O=c1oc2ccc(Cl)cc2c(=O)n1-c1ccc(F)cc1F
SK-OV-3 ovarian
  GI50: 1.12 µM
  TGI: 5.43 µM
HCC-2998 colon
  GI50: 2.89 µM
  TGI: 8.72 µM
ACHN renal
  GI50: 2.14 µM
  TGI: 6.08 µM
PC-3 prostate
  GI50: 1.07 µM
  TGI: 4.03 µM
HL-60(TB) leukemia
  GI50: 1.88 µM
  TGI: 4.93 µM
OVCAR-3 ovarian
  GI50: 2.24 µM
  TGI: 18.2 µM
SW-620 colon
  GI50: 3.12 µM
  TGI: 16.9 µM
NCI-H226 lung
  GI50: 1.41 µM
  TGI: 5.87 µM
IGROV1 ovarian
  GI50: 1.74 µM
  TGI: > 100 µM
SNB-19 CNS
  GI50: 2.27 µM
  TGI: > 100 µM
